Measured values reported in patent publication US20230331675A1, “AROMATIC ETHYLENE COMPOUND AND PREPARATION METHOD THEREFOR, AND INTERMEDIATE, PHARMACEUTICAL COMPOSITION, AND APPLICATION THEREOF” (GUANGZHOU MAXINOVEL PHARMACEUTICALS CO., LTD., priority 2020, published 2023).

What follows are compounds tested against PD-1/PD-L1 (Homo sapiens (Human), UniProt Q9NZQ7) (assay: Homogeneous time-resolved fluorescence (HTRF) binding assay). Conditions: CisBio kit, read-out: IC50 of compounds binding to PD-1/PD-L1.
Chain of PD-1/PD-L1 (Q9NZQ7 19-238): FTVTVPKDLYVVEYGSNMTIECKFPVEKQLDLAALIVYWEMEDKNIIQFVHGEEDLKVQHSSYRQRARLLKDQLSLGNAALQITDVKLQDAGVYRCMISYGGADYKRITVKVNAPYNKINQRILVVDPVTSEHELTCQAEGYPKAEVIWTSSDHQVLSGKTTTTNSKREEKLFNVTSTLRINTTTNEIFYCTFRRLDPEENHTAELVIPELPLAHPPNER
Text: Effect embodiment 1: Homogenouse time-resolved fluorescence
Homogeneous time-resolved fluorescence (HTRF) binding assay was used to determine the binding ability of the compound of the present disclosure to PD-1/PD-L1.
The purchased kit (CisBio, #64CUS000C-1) contained reagents required for assays such as PD-1, PD-L1, anti-tag1-Eu, Anti-tag2-XL665, dilute buffer, and detection buffer.
1. The compound was formulated to 10 concentrations with a 3-fold gradient with 100% DMSO.
2. The DMSO solution of the compound was added to the dilute buffer, mixed thoroughly, then transferred to a 96-well plate.
3. PD-L1 was diluted with dilute buffer, then added to the above 96-well plate.
4. PD-1 was diluted with dilute buffer and added to the above 96-well plate, which was then incubated at room temperature for 30 minutes.
5. A portion of anti-tag1-Eu and a portion of anti-tag2-XL665 were added to the detection buffer, mixed thoroughly and transferred to the above 96-well plate.
6. The mixture in the above 96-well plate was incubated at room temperature for 1 to 24 hours.
7. HTRF values were read with Envision.

IC50	Compound
0.0114 µM	Cc1cc(/C=C/c2cccc(-c3ccccc3)c2C)c(Cl)cc1CN1CCOC[C@H]1C(=O)O [Compound 22, (S,E)-4-(5-Chloro-2-methyl-4-(2-(2-methyl-[1,1′-biphenyl]-3-yl)vinyl)benzyl)morpholine-3-carboxylic acid]
0.0871 µM	Cc1c(/C=C/c2ccc(CN3CCCC[C@H]3C(=O)O)cc2Cl)cccc1-c1ccccc1 [Compound 3, (S,E)-1-(3-Chloro-4-(2-(2-methyl-[1,1′-biphenyl]-3-yl)vinyl)benzyl)piperidine-2-carboxylic acid]
0.706 µM	Cc1cc(OCCO)c(CN2CCOC[C@H]2C(=O)O)cc1/C=C/c1cccc(-c2ccccc2)c1C#N [Compound 42, (S,E)-4-(5-(2-(2-Cyano-[1,1′-biphenyl]-3-yl)vinyl)-2-(2-hydroxyethoxy)-4-methylbenzyl)morpholine-3-carboxylic acid]
0.0655 µM	Cc1c(/C=C/c2cc(OCc3ccc(I)cc3)c(CN3CCCC[C@H]3C(=O)O)cc2C(F)(F)F)cccc1-c1ccccc1 [Compound 78]
0.0077 µM	Cc1cc(CN2CCOC[C@H]2C(=O)O)c(OCCO)cc1/C=C/c1cccc(-c2ccccc2)c1C#N [Compound 30, (S,E)-4-(4-(2-(2-Cyano-[1,1′-biphenyl]-3-yl)vinyl)-2-(2-hydroxyethoxy)-5-methylbenzyl)morpholine-3-carboxylic acid]
0.00397 µM	Cc1c(/C=C/c2cc(OCc3cc(I)ccn3)c(CN3CCCC[C@H]3C(=O)O)cc2C(F)(F)F)cccc1-c1ccccc1 [Compound 80, (S,E)-1-(2-((4-Iodopyridin-2-yl)methoxy)-4-(2-(2-methyl-[1,1′-biphenyl]-3-yl)vinyl)-5-(trifluoromethyl)benzyl)piperidine-2-carboxylic acid]
0.135 µM	N#Cc1c(/C=C/c2cc(CO)c(CN3CCNC[C@H]3C(=O)O)cc2C(F)(F)F)cccc1-c1ccccc1 [Compound 28, (S,E)-1-(4-(2-(2-Cyano-[1,1′-biphenyl]-3-yl)vinyl)-2-hydroxymethyl-5-trifluoromethylbenzyl)piperazine-2-carboxylic acid]
0.186 µM	Cc1cc(/C=C/c2cccc(-c3ccccc3)c2C)c(Cl)cc1CN1CCNC[C@H]1C(=O)O [Compound 23, (S,E)-1-(5-Chloro-2-methyl-4-(2-(2-methyl-[1,1′-biphenyl]-3-yl)vinyl)benzyl)piperazine-2-carboxylic acid]
0.00709 µM	COc1cc(/C=C/c2cccc(-c3ccccc3)c2CF)c(C(F)(F)F)cc1CNCCO [Compound 74, (E)-2-((4-(2-(2-Fluoromethyl-[1,1′-biphenyl]-3-yl)vinyl)-2-methoxy-5-trifluoromethylbenzyl)amino)-1-ethanol]
1.16 µM	Cc1cc(CN2CCCC[C@H]2C(=O)O)c(O)cc1/C=C/c1cccc(-c2ccccc2)c1C#N [Compound 31, (S,E)-1-(4-(2-(2-Cyano-[1,1′-biphenyl]-3-yl)vinyl)-2-hydroxy-5-methylbenzyl)piperidine-2-carboxylic acid]
0.008 µM	Cc1cc(CN2CCCC[C@H]2C(=O)O)c(OCC#N)cc1/C=C/c1cccc(-c2ccccc2)c1C#N [Compound 48, (S,E)-1-(4-(2-(2-Cyano-[1,1′-biphenyl]-3-yl)vinyl)-2-(cyanomethoxy)-5-methylbenzyl)piperidine-2-carboxylic acid]
0.281 µM	Cc1cc(OCCO)c(CN2CCCC[C@H]2C(=O)O)cc1/C=C/c1cccc(-c2ccccc2)c1C#N [Compound 41, (S,E)-1-(5-(2-(2-Cyano-[1,1′-biphenyl]-3-yl)vinyl)-2-(2-hydroxyethoxy)-4-methylbenzyl)piperidine-2-carboxylic acid]
0.00931 µM	COc1cc(/C=C/c2cccc(-c3ccccc3)c2C)c(C)cc1CN1CCCC[C@H]1C(=O)O [Compound 70, (S,E)-1-(2-Methoxy-5-methyl-4-(2-(2-methyl-[1,1′-biphenyl]-3-yl)vinyl)benzyl)piperidine-2-carboxylic acid]
0.0016 µM	COc1cc(/C=C/c2cccc(-c3ccccc3)c2C)c(C(F)(F)F)cc1CN1CCCC[C@H]1C(=O)O [Compound 6, (S,E)-1-(2-Methoxy-4-(2-(2-methyl-[1,1′-biphenyl]-3-yl)vinyl)-5-trifluoromethylbenzyl)piperidine-2-carboxylic acid]
> 10 µM	COCCOc1cc(/C=C/c2cccc(-c3ccccc3)c2C#N)c(CN2CCCC[C@H]2C(=O)O)cc1Cl [Compound 33, (S,E)-1-(5-Chloro-2-(2-(2-cyano-[1,1′-biphenyl]-3-yl)vinyl)-4-(2-methoxyethoxy)benzyl)piperidine-2-carboxylic acid]
0.048 µM	COc1cc(/C(F)=C/c2cccc(-c3ccccc3)c2C)c(C(F)(F)F)cc1CNCCO [Compound 65, (Z)-2-((4-(1-Fluoro-2-(2-methyl-[1,1′-biphenyl]-3-yl)vinyl)-2-methoxy-5-trifluoromethylbenzyl)amino)-1-ethanol]
0.0263 µM	N#Cc1c(/C=C/c2ccc(CN3CCCC[C@H]3C(=O)O)cc2Cl)cccc1-c1ccccc1 [Compound 2, (S,E)-1-(3-Chloro-4-(2-(2-cyano-[1,1′-biphenyl]-3-yl)vinyl)benzyl)piperidine-2-carboxylic acid]
0.0305 µM	COc1cc(CN2CCCC[C@H]2C(=O)O)c(OC)cc1/C=C/c1cccc(-c2ccccc2)c1C [Compound 63, (S,E)-1-(2,5-Dimethoxy-4-(2-(2-methyl-[1,1′-biphenyl]-3-yl)vinyl)benzyl)piperidine-2-carboxylic acid]
0.00073 µM	[2H]c1c([2H])c([2H])c(-c2cccc(/C=C/c3cc(OC)c(CN4CCCC[C@H]4C(=O)O)cc3C(F)(F)F)c2C)c([2H])c1[2H] [Compound 61, (S,E)-1-(2-Methoxy-4-(2-(2-methyl-[1,1′-biphenyl]-3-yl-2′,3′,4′,5′,6′-d5)vinyl)-5-trifluoromethylbenzyl)piperidine-2-carboxylic acid]
0.0062 µM	Cc1cc(/C=C/c2cccc(-c3ccccc3)c2C#N)c(Cl)cc1CNCC(=O)O [Compound 19, (E)-(5-Chloro-4-(2-(2-cyano-[1,1′-biphenyl]-3-yl)vinyl)-2-methylbenzyl)glycine]
0.0295 µM	COc1cc(/C(F)=C/c2cccc(-c3ccccc3)c2C)c(C(F)(F)F)cc1CN1CCCC[C@H]1C(=O)O [Compound 64, (S,Z)-1-(4-(1-Fluoro-2-(2-methyl-[1,1′-biphenyl]-3-yl)vinyl)2-methoxy-5-trifluoromethylbenzyl)piperidine-2-carboxylic acid]
> 10 µM	COCCOc1cc(/C=C/c2cccc(-c3ccccc3)c2C#N)c(CN2CCOC[C@H]2C(=O)O)cc1Cl [Compound 34, (S,E)-4-(5-Chloro-2-(2-(2-cyano-[1,1′-biphenyl]-3-yl)vinyl)-4-(2-methoxyethoxy)benzyl)morpholine-3-carboxylic acid]
0.0068 µM	COCCOc1cc(/C=C/c2cccc(-c3ccccc3)c2C#N)c(C)cc1CN1CCCC[C@H]1C(=O)O [Compound 24, (S,E)-1-(4-(2-(2-Cyano-[1,1′-biphenyl]-3-yl)vinyl)-2-(2-methoxyethoxy)-5-methylbenzyl)piperidine-2-carboxylic acid]
0.0016 µM	Cc1cc(/C=C/c2cccc(-c3ccccc3)c2C#N)c(Cl)cc1CN1CCCC[C@H]1C(=O)O [Compound 8, (S,E)-1-(5-Chloro-4-(2-(2-cyano-[1,1′-biphenyl]-3-yl)vinyl)-2-methylbenzyl)piperidine-2-carboxylic acid]
0.0101 µM	Cc1cc(CN2CCOC[C@H]2C(=O)O)c(C)cc1/C=C/c1cccc(-c2ccccc2)c1C#N [Compound 11, (S,E)-4-(4-(2-(2-Cyano-[1,1′-biphenyl]-3-yl)vinyl)-2,5-dimethylbenzyl)morpholine-3-carboxylic acid]

Compound	IC50
Cc1cc(CNCC(=O)O)c(OCCCCC#N)cc1/C=C/c1cccc(-c2ccccc2)c1C#N [Compound 16, (E)-(4-(2-(2-Cyano-[1,1′-biphenyl]-3-yl)vinyl)-2-(4-cyanobutoxy)-5-methylbenzyl)glycine]	0.0145 µM
(S,E)-2-((5-Chloro-2-(2-(2-cyano-[1,1′-biphenyl]-3-yl)vinyl)-4-(3-methylsulfonyl)propoxy)benzyl)amino)-3-hydroxy-2-methylpropionic acid [Compound 38]	0.298 µM
Cc1c(/C=C/c2cc(OCCCCF)c(CN3CCCC[C@H]3C(=O)O)cc2C(F)(F)F)cccc1-c1ccccc1 [Compound 85, (S,E)-1-(2-(4-Fluorobutoxy)-4-(2-(2-methyl-[1,1′-biphenyl]-3-yl)vinyl)-5-(trifluoromethyl)benzyl)piperidine-2-carboxylic acid]	0.00434 µM
Cc1cc(CN2CCCC[C@H]2C(=O)O)c(OCCCCC#N)cc1/C=C/c1cccc(-c2ccccc2)c1C#N [Compound 15, (S,E)-1-(4-(2-(2-Cyano-[1,1′-biphenyl]-3-yl)vinyl)-2-(4-cyanobutoxy)-5-methylbenzyl)piperidine-2-carboxylic acid]	0.0021 µM
COCCOc1cc(/C=C/c2cccc(-c3ccccc3)c2C#N)c(CN[C@@](C)(CO)C(=O)O)cc1Cl [Compound 35, (S,E)-2-((5-Chloro-2-(2-(2-cyano-[1,1′-biphenyl]-3-yl)vinyl)-4-(2-methoxyethoxy)benzyl)amino)-3-hydroxy-2-methylpropanoic acid]	1.15 µM
(S,E)-1-(2-Methoxy-4-(2-(2-methyl-d3)-[1,1′-biphenyl]-3-yl)vinyl)-5-trifluoromethylbenzyl)piperidine-2-carboxylic acid [Compound 51]	0.0022 µM
